Consider seven compounds from BindingDB's records for doi:10.1016/j.bmcl.2008.08.034 (University of Illinois At Chicago, 2008).

Bounds are passed on as bounds.

This experiment addresses T1, 1-deoxy-D-xylulose-5-phosphate synthase (Mycobacterium tuberculosis (strain ATCC 25618 / H37Rv), UniProt P9WNS3).
T1 sequence (P9WNS3 whole entry): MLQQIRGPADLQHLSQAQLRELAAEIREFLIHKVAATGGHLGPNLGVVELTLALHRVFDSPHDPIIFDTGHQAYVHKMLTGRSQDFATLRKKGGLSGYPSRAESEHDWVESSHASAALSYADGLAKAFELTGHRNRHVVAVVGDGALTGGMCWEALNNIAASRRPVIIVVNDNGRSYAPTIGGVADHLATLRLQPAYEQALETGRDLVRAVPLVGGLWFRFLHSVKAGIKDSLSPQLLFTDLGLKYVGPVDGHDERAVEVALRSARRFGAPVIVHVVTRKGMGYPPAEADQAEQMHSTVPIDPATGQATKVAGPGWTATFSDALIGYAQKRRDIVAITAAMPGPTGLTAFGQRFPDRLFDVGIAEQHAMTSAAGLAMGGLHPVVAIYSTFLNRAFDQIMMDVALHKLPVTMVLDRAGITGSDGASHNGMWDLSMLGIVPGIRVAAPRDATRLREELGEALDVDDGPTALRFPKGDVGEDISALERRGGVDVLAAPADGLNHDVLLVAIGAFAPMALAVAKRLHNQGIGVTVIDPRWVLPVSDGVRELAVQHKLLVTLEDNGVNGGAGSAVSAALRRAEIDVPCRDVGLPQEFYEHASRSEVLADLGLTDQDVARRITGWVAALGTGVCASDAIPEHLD
The experiment can be described thus: Inhibition of Mycobacterium tuberculosis cloned 1-deoxy-D-xylulose-5-phosphate synthase expressed in Escherichia coli.
The IC50 is the concentration that gives 50% inhibition. A high value points to a need for much substance. `Cc1cc(=O)n2[nH]c(C(F)(F)F)c(-c3ccc(Br)cc3)c2n1` [3-(4-bromophenyl)-5-methyl-2-(trifluoromethyl)pyrazolo[1,5-a]pyrimidin-7(4H)-one]: the IC50 was over 200 µM.
The same measure for `Cc1cc(=O)n2[nH]cc(-c3ccc(Cl)cc3)c2n1` [3-(4-chlorophenyl)-5-methylpyrazolo[1,5-a]pyrimidin-7(4H)-one]: over 200 µM; for `CCCc1c(-c2ccccc2)nc2c(-c3ccccc3)c(C)[nH]n2c1=O` [2-methyl-3,5-diphenyl-6-propylpyrazolo[1,5-a]pyrimidin-7(4H)-one]: 17.9 µM.
Next, `O=c1cc(CCl)nc2c(-c3ccccc3)c[nH]n12` [5-(chloromethyl)-3-phenylpyrazolo[1,5-a]pyrimidin-7(4H)-one]: over 200 µM; `COCc1cc(O)n2nc(C)c(-c3ccc(Cl)cc3)c2n1` [3-(4-chlorophenyl)-5-(methoxymethyl)-2-methylpyrazolo[1,5-a]pyrimidin-7(4H)-one]: over 200 µM.
The same measure for `Cc1nc2c(-c3ccc(Cl)cc3)c(C(F)(F)F)[nH]n2c(=O)c1Cc1ccccc1`: over 200 µM; for `COCc1cc(=O)n2[nH]cc(-c3ccc(Cl)cc3)c2n1` [3-(4-chlorophenyl)-5-(methoxymethyl)pyrazolo[1,5-a]pyrimidin-7(4H)-one]: over 200 µM.
